Assay results: US9132291B2, “Water-in-oil emulsion compositions containing gellan gum for topical delivery of active ingredients to the skin or mucosa” (DFB Technology, Ltd., priority 2010, dated 2015)
Structures can show the parent of a compound that is named as a salt.

Assay: In-Vitro Release Test (Franz Cell diffusion apparatus, 0.45 um Durapore HVLP membrane)
Assay type: physicochemical
Conditions: 0.5-6 hours at 35° C.
Procedure: A 0.45 um Durapore HVLP membrane was used between the donor and receptor compartments. The receptor fluid used for analysis of lidocaine HCl was 0.2M NaH2PO4/EtOH/SDS (69/30/1). The receptor fluid used for analysis of metronidazole was 600 mL Ethanol (USP) and 400 mL Phosphate Buffer (1.3 g Na2HPO4 and 1.5 g KH2PO4). The receptor fluid used for analysis of allantoin was 10 mM KH2PO4 buffer (pH=4.7). The sampling of the receptor fluid was performed at 0.5, 1, 2, 4 and 6 hours at 35° C. The concentration of the released actives in the collected samples of the receptor fluid was determined by HPLC analysis. The HPLC mobile phase used for analysis of lidocaine HCl was 0.2M NaH2PO4/EtOH/SDS (69/30/1). The HPLC mobile phase used for analysis of metronidazole was 600 mL Ethanol (USP) and 400 mL Phosphate Buffer (1.3 g Na2HPO4 and 1.5 g KH2PO4). The HPLC mobile phase used for analysis of allantoin was ACN/Water (90/10).

## Cc1ncc([N+](=O)[O-])n1CCO [metronidazole, Metronidazole]
Formulas A, B, C (0%, 0.45%, 0.75% gellan gum; 0.75% metronidazole) W/O emulsion, receptor fluid ethanol/phosphate buffer, FIG. 1 and FIG. 2
  rate of release of metronidazole: increased as the concentration of gellan gum increased

## CCN(CC)CC(=O)Nc1c(C)cccc1C [lidocaine HCl, Lidocaine HCl]
Formulas G, H, I (0%, 0.45%, 0.75% gellan gum; 2.0% lidocaine HCl) W/O emulsion, receptor fluid 0.2M NaH2PO4/EtOH/SDS (69/30/1), FIG. 5 and FIG. 6
  rate of release of lidocaine HCl: increased as the concentration of gellan gum increased

## NC(=O)NC1NC(=O)NC1=O (stereo not drawn) [allantoin, Allantoin]
Formulas D, E, F (0%, 0.45%, 0.75% gellan gum; 0.1% allantoin) W/O emulsion, receptor fluid 10 mM KH2PO4 buffer pH 4.7, FIG. 3 and FIG. 4
  rate of release of allantoin: increased as the concentration of gellan gum increased
